One series deals with S100A4 protein. Put plainly: S100A4 protein expression by immunoblot. Format: cell-based, human. The settings on record: for S100A4 protein expression: 1 μM. How it is done:
For total protein extraction cells were lysed with RIPA buffer (50 mM Tris-HCl, 150 mM NaCl, 1% Nonidet P-40, supplemented with complete protease inhibitor tablets; Roche) for 30 minutes on ice. For isolation of the nuclear protein fraction, the NE-PER Nuclear and Cytoplasmic Extraction Kit (Pierce) was used according to the manufacturer's instructions. Protein concentration was quantified with Bicinchoninic Acid (BCA) Protein Assay Reagent (Pierce) according to manufacturer's instructions and lysates of equal protein concentration were separated with SDS-PAGE and transferred to Hybond C Extra nitrocellulose membrane (Amersham Biosciences). Membranes were incubated in blocking solution containing 5% nonfat dry milk and 1% bovine serum albumin (BSA) for 1 hour at room temperature. Membranes were incubated overnight at 4° C. with rabbit anti-human-S100A4 antibody (dilution, 1:1500), mouse anti-human-CTNNB1 antibody (dilution, 1:1000), mouse anti-human TUBB1 antibody (dilution, 1:1000), goat anti-human GAPDH antibody (dilution, 1:500) or mouse anti-human PCNA antibody (dilution, 1:1000) followed by incubation for 1 hour at room temperature with HRP-conjugated anti-goat (dilution, 1:10000), anti-rabbit (dilution, 1:10000), anti-mouse IgG (dilution, 1:10000) or anti-mouse IgM (dilution, 1:10000) antibody. Antibody-protein-complexes were visualized with electrochemical-luminescence (ECL) reagent (100 mM Tris-HCl, 0.025% w/v luminol, 0.011% w/v para-hydroxycoumaric acid, 10% v/v dimethylsulfoxide, 0.004% v/v H2O2, pH 8.6) and subsequent exposure to CL-XPosure™ Films (Pierce) for 1 second to 20 minutes. Immunoblotting for GAPDH and PCNA served as protein loading control. Immunoblotting for β-tubulin was used to control that nuclear extracts were free from cytoplasmatic protein. All experiments were performed at least three independent times.
(A) Determination of the cytotoxicity of niclosamide on HCT116 cells. Cells were treated with increasing concentrations of niclosamide for 24 hours and cell viability was measured. (B) Effect of increasing concentrations of niclosamide on S100A4 expression. HCT116 cells were treated with increasing concentrations of niclosamide for 24 hours. S100A4 expression was determined by quantitative reverse-transcription-polymerase chain reaction (qRT-PCR) and immunoblot. (C) Time-dependency of niclosamide effect on S100A4 expression. HCT116 cells were treated with a single dose of 1 μM niclosamide for 24 hours and S100A4 expression was analyzed by qRT-PCR and immunoblot at indicated time points. Black bar indicates the chosen treatment conditions for further experiments. (D) Effect of daily doses of niclosamide on S100A4 expression. HCT116 cells were treated daily with 1 μM niclosamide and S100A4 expression was analyzed by qRT-PCR and immunoblot. Data is given as mean±SD (n>2). Differences in treated groups were compared with the control group by two-sided one-way analysis of variances and Bonferroni post hoc multiple comparison test.
(E) Effect of niclosamide in HCT116-vector and HCT116-S100A4 cells. HCT116-vector and HCT116-S100A4 cells were treated with 1 μM niclosamide for 24 hours and S100A4 expression was analyzed by qRT-PCR and immunoblot. Data is given as mean±SD (n>2). Comparison of niclosamide vs. solvent-treated cells was analyzed with Student's t test.
(A) S100A4 expression under niclosamide treatment. Cells were treated with 1 μM niclosamide for 24 hours. S100A4 expression was analyzed with qRT-PCR and immunoblot. (B) Cell migration under niclosamide treatment. Migration rates of cells treated with 1 μM niclosamide for 24 hours were determined in a Boyden chamber assay values were normalized to solvent-treated SW620 cells. (C) Cell invasion under niclosamide treatment. Cells were seeded onto Matrigel covered transwells and treated with 1 μM niclosamide for 24 hours. Invaded cells in the lower chamber were counted and normalized to solvent-treated SW620 cells. […]
(In general: In western blotting, separated proteins are transferred to a membrane and probed.)

The test system of series [1] is SW620, LS174T, SW480 and DLD-1 cells. Put plainly: Wound healing assay (directed migration). Format: cell-based, human. To be noted: 1 μM daily, 4 days, vs respective solvent-treated control. How it is done: For wound healing assay HCT116, SW620, LS174T, SW480 and DLD-1 cells were grown to form 60% confluent monolayers of cells in which a wound of about 300 μm width was inflicted with a sterile pipette tip. The medium was exchanged to remove non-adherent cells and the wounded monolayer was treated with 1 μM niclosamide or the respective amount of DMSO every 24 hours for 4 consecutive days. The progress of wound closure was monitored with microphotographs of 10× magnification taken with the Leica DM IL light microscope (Leica Microsystems) on day 0 and day 4. The wound healing experiment was performed three independent times.
(A) S100A4 expression under niclosamide treatment. […] S100A4 expression was analyzed with qRT-PCR and immunoblot. […] Migration rates of cells treated with 1 μM niclosamide for 24 hours were determined in a Boyden chamber assay values were normalized to solvent-treated SW620 cells. […] Invaded cells in the lower chamber were counted and normalized to solvent-treated SW620 cells. Differences in solvent vs. niclosamide-treated cells were analyzed by Student's t test. […] The amount of viable cells per well was determined by MTT assay. […] (G) Quantification of colonies formed. Number of colonies (of more than 4 cells) was counted and normalized to solvent-treated SW620 cells. Differences in solvent vs. niclosamide-treated cells were analyzed by Student's t test. […]

For series [2] the following is noted: humans, taken orally; cited from earlier work.

A value given as a limit tells only on which side of the number the result lay.

Here are results for one molecule from patent publication US11331290B2, “Niclosamide for the treatment of cancer metastasis” (Max-Delbrück-Centrum für Molekulare Medizin in der …, priority 2011, dated 2022).

On to `O=C(Nc1ccc([N+](=O)[O-])cc1Cl)c1cc(Cl)ccc1O` [niclosamide, 2′,5-dichloro-4′-nitrosalicylanilide], for which the S100A4 protein expression result is “no S100A4 protein was detected” in the series on S100A4 protein (DLD-1 cells, 24 h (solvent and niclosamide-treated)); “reduced” in the series with S100A4 protein (SW620, LS174T and SW480 cells, 24 h). Also, the S100A4 protein level result with S100A4 protein (HCT116, 0.1 μM to 2.5 μM, 24 h) is reported as “reduced in a concentration-dependent manner”; with S100A4 protein (HCT116-S100A4, 1 μM, 24 h), “no reduction”. Further, in the series with S100A4 protein (HCT116, 1 μM daily), the “S100A4 protein level, % of solvent-treated control cells” value is given as “approximately 50%”. In addition, in the series with S100A4 protein (HCT116, three days following discontinuation of niclosamide treatment), the S100A4 protein entry is “clearly reduced”. In the series on S100A4 protein (Homo sapiens, HCT-116, HCT116, 1 μM, single dose, 24 hours, read-out: S100A4 protein level, % of control), the activity at 1 µM was below 50%. Moreover, the “directed migration (wound healing)” value in series [1] is “impaired”. For the same molecule, the side effects result in series [2] was “only slight side effects”.
